# Reference: article PMC5654082 (Malaria Journal, 2017)
# Where a name gives a salt, the structure may show the parent alone.
# Assays:
# human OCT2 = target: T1, human OCT2 (Homo sapiens, UniProt O15244); assay: Inhibition of OCT2-mediated ASP uptake in transduced HEK293 cells; format: cell-based; conditions: 10 µM ASP, 10 min, 37 °C
# T1 construct: host or cells: HEK293, baculovirus transduction (CMV promoter), transient
# T1 sequence (O15244 1-555): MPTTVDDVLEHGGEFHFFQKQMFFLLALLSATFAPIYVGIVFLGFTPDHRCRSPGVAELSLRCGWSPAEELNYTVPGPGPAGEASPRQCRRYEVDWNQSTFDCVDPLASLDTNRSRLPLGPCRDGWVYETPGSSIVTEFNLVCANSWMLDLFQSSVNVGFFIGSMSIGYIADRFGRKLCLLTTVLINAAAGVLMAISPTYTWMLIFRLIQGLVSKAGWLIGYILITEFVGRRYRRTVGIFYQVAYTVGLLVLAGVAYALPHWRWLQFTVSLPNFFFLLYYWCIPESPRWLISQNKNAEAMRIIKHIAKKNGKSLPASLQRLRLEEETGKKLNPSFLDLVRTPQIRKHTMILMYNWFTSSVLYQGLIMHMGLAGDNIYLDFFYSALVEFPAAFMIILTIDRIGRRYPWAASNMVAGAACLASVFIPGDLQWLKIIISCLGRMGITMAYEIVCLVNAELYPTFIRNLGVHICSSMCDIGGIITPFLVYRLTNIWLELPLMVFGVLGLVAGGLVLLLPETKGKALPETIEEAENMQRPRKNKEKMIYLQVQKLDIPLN
# Experimental: HEK293 cells were modified to transiently express (a combination of) human OCT1, OCT2, MATE1, MATE2-K, or eYFP. Briefly, cDNA of the respective genes was cloned downstream of a CMV promoter into a baculovirus, of which passage three was used to transduce HEK293 cells. These cells were seeded in poly-D-lysine coated 24- or 96-wells plates and grown in a 37 °C incubator at 5% CO2. […] After 24 h, cells were transduced with 30 µL virus (10 µL virus + 20 µL complete medium in case of 96-wells plates) or 2 × 15 µL virus for cells that required simultaneous expression of two transporters. Finally, 195 µL sodium butyrate (45 µL for 96-wells plates) was added to a final concentration of 2 mM to enhance protein expression.
# AMO (10 mM), ASP (1 mM), CQ (10 mM), PQ (10 mM) and PG (10 mM) were dissolved in MilliQ water. ART (10 mM), ATO (10 mM), DHA (10 mM), LUM (10 mM), MQ (10 mM), NMQ (20 mM), PYR (10 mM), QN (10 mM) were dissolved in DMSO. All compound stocks were stored at − 20 °C. Inhibition of OCT1- or OCT2-mediated ASP uptake by anti-malarials was performed in poly-D-lysine coated 96-wells plates 2 or 3 days following HEK293 cell transduction. In short, cells were washed with 125 µL 37 °C HBSS containing 10 mM HEPES, pH 7.4. […] ASP transport was stopped by washing with 125 µL ice-cold HBSS-HEPES buffer supplemented with 0.5% BSA.
# For each compound, a range of seven concentrations was used to determine the concentration at which ASP uptake was inhibited half maximally (IC50). At least three independent experiments (4 for QN) were performed for each drug in triplicate as described above. […] To generate the final dose–response inhibition curve per anti-malarial, percentage of uptake was averaged for each drug concentration per experiment and the resulting mean ± SEM corresponding to three or four independent experiments were plotted.
# [1] = co-administration of EFV; cited from earlier work
smiles,measurement,setting,value
"[H]/N=C(\N/C(=N/[H])Nc1ccc(Cl)cc1)NC(C)C [Proguanil, proguanil hydrochloride]",IC50,human OCT2; seven concentrations,13 µM
same,Relative ASP uptake (OCT2-mediated),"human OCT2; 50 µM anti-malarial, relative to solvent control fixed at 100%",19 ± 7%
same,Increase of Cmax of PG by EFV,[1],47%
